Entries after “also recorded” stand apart in the source; their conditions may differ.

Assay [1] relates to latent HIV LTR. In words: Activation of latent HIV LTR in J-Lat/S-Lat latently infected cell lines (GFP reporter, FACS). Format: cell-based, HIV-1. To be noted: single agents; J-Lat/S-Lat or 1G5 cells; FIG. 5. As to the method:
A) S-Lat 46, J-Lat P32, J-Lat A2, J-Lat 11.1, S-Lat 24, S-Lat 9 and […], and GFP expression was monitored by FACS analysis to determine activation of the latent LTR. B) J-Lat P32 and (C) S-Lat 30 Jurkats and SupT1 cell lines harbouring latently infected HIV were either untreated or treated with 2, 5 or 10 mM LiCl as indicated. Expression of HIV-LTR driven P24 and GFP, and endogenous Wnt target genes AXIN2, MMP9, TCF1, as well as control GAPDH and NFkB target genes TLR2 and ICAM1 was monitored by qRT-PCR 72 hours after treatment. Expression data are presented as fold induction normalized to Cyclophillin A control.
Expression data are presented as fold induction normalized to Cyclophillin A control.

Assay [2] relates to b-catenin recruitment to HIV LTR. In words: b-catenin ChIP at the HIV LTR in J-Lat cells. Conditions: latent J-Lat cells; FIG. 4D. Format: cell-based. As to the method: (§1) (A) Schematic representation of strategy to explore nucleosome position changes and enrichment of LEF/b-catenin at the HIV LTR in its repressed state and after Wnt activation. Jurkat latent cells at 0, and 12 hours after stimulation with LiCl, BIO VPA, or LiCl and VPA together were crosslinked and sonicated to yield DNA fragments of approximately 150 bp. DNA accessibility was monitored by formaldehyde-assisted isolation of regulatory elements (FAIRE) while nucleosome occupancy was determined by histone H2B Chromatin immunoprecipitations (ChIPs). To determine enrichment of LEF, b-catenin, or Histone Acetyl H3, we performed ChIPs with antibodies specific for LEF1, b-catenin, Ac H3. (B) Wnt activation by treatment with LiCl/BIO is accompanied by an increase in DNA accessibility over the DHS1 of the HIV LTR. […] FAIRE results are presented as fold change respective to the unstimulated value (normalized to 1) for each primer pair. (D) b-catenin while absent from the LTR in the repressed state, directly binds to the LTR upon LiCl/BIO activation. LEF1 binding, while present on the LTR in the repressed state is enriched upon LiCl/BIO treatment. […] Immunoprecipitated DNA from ChIPs and phenol:chloroform extracted DNA from FAIRE were analyzed by qPCR using primer pairs specific for the HIV LTR nuc-0, DHS1, nuc-1, and nuc-2 regions, and control region amplifying upstream of the Axin2 gene. […]

Assay [3] has as its system LEF1 binding at HIV LTR. Description: LEF1 ChIP at the HIV LTR in J-Lat cells. Format: cell-based. To be noted: latent J-Lat cells; FIG. 4D. As to the method: as §1
The test system of assay [4] is histone acetylation on the HIV LTR. In words: Histone Acetyl H3 ChIP at the HIV LTR in J-Lat cells. Format: cell-based. To be noted: latent J-Lat cells; FIG. 4D. The method, then: as §1
In assay [5] the test system is HIV LTR DHS1 and nuc-1. Description: FAIRE DNA accessibility at the HIV LTR. Conditions: latent J-Lat cells, 12 hours after stimulation; FIG. 4B. Format: cell-based. As to the method: as §1
The subject of assay [6] is HIV LTR DHS1 and nuc-1. In words: Histone H2B ChIP nucleosome occupancy at the HIV LTR. Format: cell-based. Conditions: latent J-Lat cells, 12 hours after stimulation; FIG. 4C. As to the method:
as §1

Take `O=C1Nc2cc(Br)ccc2/C1=C1/Nc2ccccc2/C1=N\O` [BIO, (2′Z,3′E)-6-Bromoindirubin-3′-oxime]: the “de-repression / activation of latent HIV LTR” value in assay [1] is “de-repression of latent HIV LTR; also recorded: activates the LTR in latently HIV infected cells”. In assay [2], the “recruitment of b-catenin to the HIV LTR (ChIP)” value was “recruitment of b-catenin to LTR DHS1 and nuc-1”. For the same molecule, in assay [3], the “enrichment of LEF1 at the HIV LTR (ChIP)” value is recorded as “enrichment of LEF1 at the HIV LTR”. Further, in assay [4], the “histone acetylation on the LTR (Ac H3 ChIP)” value is given as “histone acetylation is increased on the LTR”. Also, the “DNA accessibility at the HIV LTR (FAIRE)” value in assay [5] was “increase accessibility”. For the same molecule, the “nucleosome occupancy / histone density at the HIV LTR (H2B ChIP)” value in assay [6] is “decreased nucleosome occupancy at DHS1”.
